# Source: ChEMBL document CHEMBL5465560, “Selectivity Literature for EUbOPEN Chemogenomic Library” (2024)
# How the values were obtained:
# [1] = molecular target: Platelet-derived growth factor receptor beta (Homo sapiens, UniProt P09619); test: Selectivity interaction (KinomeScan (DiscoverX)) EUB0000229b PDGFRB; conditions: at 10 µM
# [2] = molecular target: T1, Myosin-IIIb (Homo sapiens) (UniProt Q8WXR4); test: Selectivity interaction (KinomeScan (DiscoverX)) EUB0000666a MYO3B; conditions: at 10 µM
# T1 sequence (whole entry): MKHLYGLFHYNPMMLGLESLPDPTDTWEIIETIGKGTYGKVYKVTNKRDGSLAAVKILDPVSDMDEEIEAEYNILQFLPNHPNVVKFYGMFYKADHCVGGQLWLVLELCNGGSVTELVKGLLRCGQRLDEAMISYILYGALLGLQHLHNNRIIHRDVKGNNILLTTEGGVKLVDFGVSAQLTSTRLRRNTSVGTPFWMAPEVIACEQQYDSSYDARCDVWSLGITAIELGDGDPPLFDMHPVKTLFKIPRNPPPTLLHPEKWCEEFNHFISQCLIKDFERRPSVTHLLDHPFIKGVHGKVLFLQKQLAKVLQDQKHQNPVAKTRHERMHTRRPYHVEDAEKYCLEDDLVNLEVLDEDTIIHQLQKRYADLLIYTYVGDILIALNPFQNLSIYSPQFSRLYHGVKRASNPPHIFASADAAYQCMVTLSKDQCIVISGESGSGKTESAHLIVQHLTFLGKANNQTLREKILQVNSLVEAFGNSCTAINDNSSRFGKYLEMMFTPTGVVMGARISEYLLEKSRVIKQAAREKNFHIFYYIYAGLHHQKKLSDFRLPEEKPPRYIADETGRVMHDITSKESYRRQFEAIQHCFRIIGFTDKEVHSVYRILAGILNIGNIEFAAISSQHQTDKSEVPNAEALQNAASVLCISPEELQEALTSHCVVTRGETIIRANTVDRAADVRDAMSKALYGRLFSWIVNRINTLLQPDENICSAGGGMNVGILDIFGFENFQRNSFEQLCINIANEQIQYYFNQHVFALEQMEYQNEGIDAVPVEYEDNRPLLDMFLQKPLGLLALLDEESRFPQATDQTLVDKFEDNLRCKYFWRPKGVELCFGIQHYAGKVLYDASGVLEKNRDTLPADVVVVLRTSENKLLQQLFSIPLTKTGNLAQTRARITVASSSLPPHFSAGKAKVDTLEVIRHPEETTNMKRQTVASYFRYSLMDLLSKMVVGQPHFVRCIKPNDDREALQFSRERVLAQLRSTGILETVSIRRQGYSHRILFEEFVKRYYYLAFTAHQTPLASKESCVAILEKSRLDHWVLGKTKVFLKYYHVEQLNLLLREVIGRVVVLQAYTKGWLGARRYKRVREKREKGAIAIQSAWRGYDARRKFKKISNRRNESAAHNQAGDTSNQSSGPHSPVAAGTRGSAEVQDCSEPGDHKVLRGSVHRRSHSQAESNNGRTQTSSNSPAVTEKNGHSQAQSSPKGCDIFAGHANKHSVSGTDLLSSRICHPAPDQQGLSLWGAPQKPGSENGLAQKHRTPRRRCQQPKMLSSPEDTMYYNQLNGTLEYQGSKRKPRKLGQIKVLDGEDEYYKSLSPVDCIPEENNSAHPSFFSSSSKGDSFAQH
# [3] = molecular target: Dual specificity mitogen-activated protein kinase kinase 2 (Homo sapiens) (UniProt P36507); test: Selectivity interaction (Kinase panel (Z-LYTE Assay)) EUB0001632a MAP2K2; conditions: at 10 µM
# [4] = molecular target: Muscarinic acetylcholine receptor M3 (Homo sapiens, UniProt P20309); test: Selectivity interaction (GPCR panel (PDSP screen)) EUB0000311b CHRM3; conditions: at 10 µM
# [5] = tested on: RAF proto-oncogene serine/threonine-protein kinase (Homo sapiens), P04049 [Y340D,Y341D]; test: Selectivity interaction (SelectScreen profiling (Invitrogen)) EUB0000607a RAF1; conditions: at 2 µM
# [6] = molecular target: T2, Serine/threonine-protein kinase ULK1 (Homo sapiens) (UniProt O75385); test: Selectivity interaction (KinomeScan (DiscoverX)) EUB0000045b ULK1
# T2 sequence (whole entry): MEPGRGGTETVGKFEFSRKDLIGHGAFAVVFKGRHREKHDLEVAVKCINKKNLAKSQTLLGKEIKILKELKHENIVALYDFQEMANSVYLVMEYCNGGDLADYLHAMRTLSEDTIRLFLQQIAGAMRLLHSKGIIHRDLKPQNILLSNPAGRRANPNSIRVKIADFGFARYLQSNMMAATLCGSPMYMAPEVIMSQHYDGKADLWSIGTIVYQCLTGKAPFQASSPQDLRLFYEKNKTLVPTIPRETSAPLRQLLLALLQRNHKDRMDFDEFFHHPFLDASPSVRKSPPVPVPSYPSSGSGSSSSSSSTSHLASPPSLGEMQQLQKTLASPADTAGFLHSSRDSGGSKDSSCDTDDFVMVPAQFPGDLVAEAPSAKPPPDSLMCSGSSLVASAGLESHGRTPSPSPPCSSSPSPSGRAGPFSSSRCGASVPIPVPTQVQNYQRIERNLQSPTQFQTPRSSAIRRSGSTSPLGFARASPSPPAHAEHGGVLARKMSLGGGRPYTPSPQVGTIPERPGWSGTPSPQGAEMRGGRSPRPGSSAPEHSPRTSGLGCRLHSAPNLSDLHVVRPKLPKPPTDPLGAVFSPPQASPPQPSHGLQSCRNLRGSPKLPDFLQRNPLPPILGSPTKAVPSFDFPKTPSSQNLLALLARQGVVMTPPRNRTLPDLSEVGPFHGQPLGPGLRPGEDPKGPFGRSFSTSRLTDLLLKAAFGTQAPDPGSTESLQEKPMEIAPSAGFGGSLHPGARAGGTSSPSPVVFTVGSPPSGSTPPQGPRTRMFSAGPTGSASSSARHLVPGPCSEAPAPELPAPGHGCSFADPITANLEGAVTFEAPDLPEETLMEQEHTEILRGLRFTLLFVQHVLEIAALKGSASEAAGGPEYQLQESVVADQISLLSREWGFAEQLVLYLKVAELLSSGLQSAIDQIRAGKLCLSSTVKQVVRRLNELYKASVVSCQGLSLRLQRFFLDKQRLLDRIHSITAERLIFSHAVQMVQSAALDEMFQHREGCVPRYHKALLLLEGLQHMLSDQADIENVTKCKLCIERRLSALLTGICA
# Muscarinic acetylcholine receptor M3, sequence (P20309 whole entry, looked up): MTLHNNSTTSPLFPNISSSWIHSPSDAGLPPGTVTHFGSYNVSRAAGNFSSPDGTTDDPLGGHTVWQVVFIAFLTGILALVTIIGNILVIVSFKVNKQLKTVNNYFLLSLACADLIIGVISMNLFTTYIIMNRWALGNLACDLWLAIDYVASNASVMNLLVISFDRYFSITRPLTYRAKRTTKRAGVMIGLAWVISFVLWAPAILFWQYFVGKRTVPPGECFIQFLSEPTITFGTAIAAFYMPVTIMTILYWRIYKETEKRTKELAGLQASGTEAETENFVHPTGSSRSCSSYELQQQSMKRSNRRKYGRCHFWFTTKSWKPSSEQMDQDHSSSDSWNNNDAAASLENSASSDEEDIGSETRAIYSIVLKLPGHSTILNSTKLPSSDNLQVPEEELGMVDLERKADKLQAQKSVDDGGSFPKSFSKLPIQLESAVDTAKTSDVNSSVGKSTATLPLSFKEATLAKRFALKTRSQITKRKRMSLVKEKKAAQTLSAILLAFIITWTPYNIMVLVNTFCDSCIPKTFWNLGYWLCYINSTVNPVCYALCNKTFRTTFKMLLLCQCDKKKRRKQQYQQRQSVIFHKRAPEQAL
# Dual specificity mitogen-activated protein kinase kinase 2 (Homo sapiens), sequence (P36507 whole entry): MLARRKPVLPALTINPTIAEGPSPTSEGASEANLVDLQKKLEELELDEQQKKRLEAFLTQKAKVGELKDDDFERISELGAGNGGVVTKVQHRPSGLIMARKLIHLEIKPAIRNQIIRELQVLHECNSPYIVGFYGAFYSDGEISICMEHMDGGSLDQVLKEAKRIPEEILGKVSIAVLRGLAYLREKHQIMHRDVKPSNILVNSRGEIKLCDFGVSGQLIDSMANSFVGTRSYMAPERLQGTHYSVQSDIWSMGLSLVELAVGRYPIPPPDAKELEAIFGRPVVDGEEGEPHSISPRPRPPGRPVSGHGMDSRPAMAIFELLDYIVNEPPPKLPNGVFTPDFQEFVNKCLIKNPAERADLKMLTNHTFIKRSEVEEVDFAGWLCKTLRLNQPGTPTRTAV
# RAF proto-oncogene serine/threonine-protein kinase (Homo sapiens), P04049 [Y340D,Y341D], sequence (P04049 whole entry Y340D/Y341D): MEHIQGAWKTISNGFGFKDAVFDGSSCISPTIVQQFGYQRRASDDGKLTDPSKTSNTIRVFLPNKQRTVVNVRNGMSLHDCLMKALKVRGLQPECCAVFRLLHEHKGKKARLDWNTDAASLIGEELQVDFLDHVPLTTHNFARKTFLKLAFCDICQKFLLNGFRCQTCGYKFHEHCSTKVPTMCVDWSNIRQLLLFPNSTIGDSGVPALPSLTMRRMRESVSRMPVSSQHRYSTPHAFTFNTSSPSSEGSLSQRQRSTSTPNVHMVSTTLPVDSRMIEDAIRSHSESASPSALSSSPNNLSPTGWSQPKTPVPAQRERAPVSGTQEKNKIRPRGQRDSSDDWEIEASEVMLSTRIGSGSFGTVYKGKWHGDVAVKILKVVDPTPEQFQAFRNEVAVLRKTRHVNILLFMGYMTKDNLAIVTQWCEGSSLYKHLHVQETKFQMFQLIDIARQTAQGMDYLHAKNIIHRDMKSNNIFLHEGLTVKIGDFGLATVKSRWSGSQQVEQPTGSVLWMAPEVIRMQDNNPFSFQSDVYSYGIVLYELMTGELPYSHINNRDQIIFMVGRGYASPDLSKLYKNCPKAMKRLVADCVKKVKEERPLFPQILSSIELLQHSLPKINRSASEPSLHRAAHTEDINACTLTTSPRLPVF
# Platelet-derived growth factor receptor beta, sequence (P09619 whole entry): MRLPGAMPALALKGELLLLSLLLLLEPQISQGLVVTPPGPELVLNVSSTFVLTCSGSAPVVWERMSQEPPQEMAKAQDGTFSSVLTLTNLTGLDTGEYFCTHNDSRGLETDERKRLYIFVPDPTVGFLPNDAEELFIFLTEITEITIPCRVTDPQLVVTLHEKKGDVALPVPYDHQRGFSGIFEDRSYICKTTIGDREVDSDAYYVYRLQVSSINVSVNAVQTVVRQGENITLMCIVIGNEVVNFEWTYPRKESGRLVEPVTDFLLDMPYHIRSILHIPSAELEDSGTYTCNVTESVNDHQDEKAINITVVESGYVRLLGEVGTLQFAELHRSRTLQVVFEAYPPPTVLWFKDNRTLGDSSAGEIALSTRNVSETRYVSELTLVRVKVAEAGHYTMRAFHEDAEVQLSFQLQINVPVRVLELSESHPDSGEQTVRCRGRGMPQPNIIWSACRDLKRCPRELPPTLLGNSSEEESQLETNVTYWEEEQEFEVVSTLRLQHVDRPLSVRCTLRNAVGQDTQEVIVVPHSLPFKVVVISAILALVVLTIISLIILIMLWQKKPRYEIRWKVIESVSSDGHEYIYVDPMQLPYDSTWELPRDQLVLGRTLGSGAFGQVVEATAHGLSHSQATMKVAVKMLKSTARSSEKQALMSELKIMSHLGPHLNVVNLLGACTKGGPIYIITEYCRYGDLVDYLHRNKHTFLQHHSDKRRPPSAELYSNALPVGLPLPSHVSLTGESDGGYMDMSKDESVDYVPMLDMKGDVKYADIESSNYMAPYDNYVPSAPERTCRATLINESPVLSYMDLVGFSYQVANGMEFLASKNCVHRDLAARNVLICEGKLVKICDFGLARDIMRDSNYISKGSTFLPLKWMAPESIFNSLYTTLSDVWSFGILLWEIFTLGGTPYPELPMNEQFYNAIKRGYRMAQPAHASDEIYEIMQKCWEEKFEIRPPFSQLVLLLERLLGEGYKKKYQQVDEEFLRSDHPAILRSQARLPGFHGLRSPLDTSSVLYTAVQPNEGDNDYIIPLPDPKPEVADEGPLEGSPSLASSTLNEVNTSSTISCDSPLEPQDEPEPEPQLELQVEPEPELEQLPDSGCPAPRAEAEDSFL
structure (smiles),measurement,setting,value
COc1cc(N(C)c2ccnc3ccc(C(F)(F)F)cc23)cc(OC)c1OC,% binding,[1],98%
O=C(NOC[C@H](O)CO)c1ccc(F)c(F)c1Nc1ccc(I)cc1F,% of control,[2],99%
Cn1cc(-n2cnc3c(NCc4nc5cc(Cl)c(Cl)cc5[nH]4)nc(N4CCOCC4)nc32)cn1,% of control,[3],3.34%
CCc1ccccc1C(=O)Nc1n[nH]c2c(C)c(F)c(C3C(C#N)=C(C)N(C)C(C)=C3C#N)cc12 [BAY-3827],% of inhibition,[4],22.5%
CNC(=O)Nc1ccc(-c2nc(N3CC4CCC(C3)O4)c3cnn(C4CCC5(CC4)OCCO5)c3n2)cc1,% of inhibition,[5],12%
C=CC(=O)Nc1cc(-n2c(=O)ccc3cnc4ccc(-c5ccc(NS(C)(=O)=O)cc5)cc4c32)ccc1C,% of control,[6]; at 1 µM,84%
same,% of control,[6]; at 10 µM,100%
